According to patent US9718817B2, “Aryl and heteroaryl ether compounds as ROR gamma modulators” (Glenmark Pharmaceuticals S.A., priority 2014, dated 2017):

Target: T1, GST-tagged ROR gamma ligand binding domain (LBD) (Homo sapiens, UniProt P51449)
T1 construct: purchased Invitrogen
T1 sequence (P51449 269-508 limits assumed): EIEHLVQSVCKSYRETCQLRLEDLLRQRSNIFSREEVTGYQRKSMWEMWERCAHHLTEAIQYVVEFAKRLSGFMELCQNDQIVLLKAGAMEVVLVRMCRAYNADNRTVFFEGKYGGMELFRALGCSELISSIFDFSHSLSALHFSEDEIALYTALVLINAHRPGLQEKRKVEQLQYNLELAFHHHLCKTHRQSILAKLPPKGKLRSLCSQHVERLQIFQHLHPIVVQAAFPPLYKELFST
Experiment: TR-FRET assay for ROR gamma (LanthaScreen co-activator peptide recruitment)
Assay type: biochemical
Details: for IC50: class symbols, from dose response curve; for inhibition at 1 µM: compound 1 μM; for inhibition at 1 µM / inhibition at 10 µM: TR-FRET ratio 520/495, percent of control; for inhibition at 10 µM: compound 10 μM
Excerpt: The compounds described herein were screened for ROR gamma modulator activity using the TR-FRET assay by Lantha Screen as described in JBC 2011, 286, 26: 22707-10; and Drug Metabolism and Disposition 2009, 37, 10: 2069-78.
The assay is based on the principle that binding of the agonist to the ROR gamma causes a conformational change around helix 12 in the ligand binding domain, resulting in higher affinity for the co-activator peptide. ROR gamma being constitutively active, the Fluorescein-D22 co-activator peptide used in the assay is recruited in the absence of a ligand. Binding of the co-activator peptide, causes an increase in the TR-FRET signal while binding of an antagonist decreases the recruitment of the co-activator peptide, causing a decrease in the TR-FRET signal compared to control with no compound. The assay was performed using a two-step procedure, pre-incubation step with the compound followed by the detection step on addition of the anti-GST tagged terbium (Tb) and fluorescein tagged fluorophores as the acceptor.
Test compounds or reference compounds such as T0901317 (Calbiochem) were dissolved in dimethylsulfoxide (DMSO) to prepare 10.0 mM stock solutions and diluted to the desired concentration. The final concentration of DMSO in the reaction was 4% (v/v). The assay mixture was prepared by mixing 10 nM of the GST-tagged ROR gamma ligand binding domain (LBD) in the assay buffer containing 25 mM HEPES (pH 7.4), 100 mM NaCl, 5 mM DTT and 0.01% BSA with or without the desired concentration of the compound. The reaction was incubated at 22° C. for 1 hour. The pre-incubation step was terminated by addition of the detection mixture containing 300 nM Fluorescein-D22 co-activator peptide and 10 nM lantha screen Tb-anti GST antibody into the reaction mixture. After shaking for 5 minutes the reaction was further incubated for 1 hour at room temperature and read at 4° C. on an Infinite F500 reader as per the kit instructions (Invitrogen). The inhibition of test compound was calculated based on the TR-FRET ratio of 520/495. The activity was calculated as a percent of control reaction. IC50 values were calculated from dose response curve by nonlinear regression analysis using GraphPad Prism software.
Percentage inhibition at concentrations of 1.0 μM and 10.0 μM are given in the table along with IC50 (nM) details for selected examples.

| Structure (SMILES) | IC50 [nM] | inhibition at 1 µM [%] | inhibition at 10 µM [%] |
| --- | --- | --- | --- |
| CCS(=O)(=O)c1ccc(CC(=O)Nc2ccc3c(c2)nc(C(C)(C)Oc2ccc(F)c(F)c2)n3C)cc1 [Example 82, N-{2-[2-(3,4-Difluorophenoxy)propan-2-yl]-1-methyl-1H-benzimidazol-5-yl}-2-[4-(ethylsulfonyl)phenyl]acetamide] | 50 to 100 | 82 | 88.4 |
| CCn1c(C(C)(C)Oc2ccc(Cl)c(F)c2)nc2cc(NC(=O)Cc3ccc(S(=O)(=O)CC)cc3)ccc21 [Example 87, N-{2-[1-(4-Chloro-3-fluoro-phenoxy)-1-methyl-ethyl]-1-ethyl-1H-benzoimidazol-5-yl}-2-(4-ethanesulfonyl-phenyl)-acetamide] | < 50 | 90.8 | 94.8 |
| CCS(=O)(=O)c1ccc(CC(=O)Nc2ccc(C#CC(C)(C)Oc3ccc(F)cc3Cl)cc2)cc1 [Example 67, N-{4-[3-(2-Chloro-4-fluoro-phenoxy)-3-methyl-but-1-yn-1-yl]-phenyl}-2-(4-ethanesulfonyl-phenyl)-acetamide] |  | 70.5 | 75.7 |
| CCS(=O)(=O)c1ccc(CC(=O)Nc2ccc(OC(C)(C)c3ccc(F)cc3F)c(F)c2)cc1 [Example 107, N-{4-[1-(2,4-Difluoro-phenyl)-1-methyl-ethoxy]-3-fluoro-phenyl}-2-(4-ethanesulfonyl-phenyl)-acetamide] |  | 59 | 59.5 |
| CCS(=O)(=O)c1ccc(CC(=O)Nc2ccc(OC3(c4ccc(Cl)c(F)c4)COC3)cc2)cc1 [Example 45, N-{4-[3-(4-Chloro-3-fluoro-phenyl)-oxetan-3-yloxy]-phenyl}-2-(4-ethanesulfonyl-phenyl)-acetamide] | < 50 | 76.8 | 85.7 |
| CCS(=O)(=O)c1ccc(CC(=O)Nc2ccc(OC(C)(C)c3cc(Cl)cc(Cl)c3)cc2)cc1 [Example 5, N-(4-{[2-(3,5-Dichlorophenyl)propan-2-yl]oxy}phenyl)-2-[4-(ethylsulfonyl)phenyl]acetamide] |  | 58.2 | 66.9 |
| CCS(=O)(=O)c1ccc(CC(=O)Nc2ccc(OC(C)(C)c3ccc(Cl)cc3F)c(F)c2)cc1 [Example 98, N-{4-[1-(4-Chloro-2-fluoro-phenyl)-1-methyl-ethoxy]-3-fluoro-phenyl}-2-(4-ethanesulfonyl-phenyl)-acetamide] |  | 55 | 49.6 |
| CCS(=O)(=O)c1ccc(CC(=O)Nc2ccc(OC3(c4ccc(Cl)cc4Cl)COC3)c(F)c2)cc1 [Example 101, N-{4-[3-(2,4-Dichloro-phenyl)-oxetan-3-yloxy]-3-fluoro-phenyl}-2-(4-ethanesulfonyl-phenyl)-acetamide] | < 50 | 86.6 | 82.3 |
| CCS(=O)(=O)c1ccc(CC(=O)Nc2ccc(OC3(c4ccc(Cl)c(F)c4)CCNCC3)cc2)cc1 [Example 43, N-(4-{[4-(4-Chloro-3-fluorophenyl)piperidin-4-yl]oxy}phenyl)-2-[4-(ethylsulfonyl)phenyl]acetamide] |  | 27.3 | 55 |
| CCN(C(=O)C(C)(C)Oc1ccc(NC(=O)Cc2ccc(S(=O)(=O)CC)cc2)cc1)c1ccc(Cl)c(F)c1 [Example 130, N-(4-Chloro-3-fluorophenyl)-N-ethyl-2-(4-(2-(4-(ethylsulfonyl)phenyl)acetamido)phenoxy)-2-methylpropanamide] | > 100 | 73 | 85.2 |
| CCn1c(C(C)(C)Oc2ccc(NC(=O)Cc3ccc(S(=O)(=O)CC)cc3)cc2)nc2cc(F)ccc21 [Example 15, 2-(4-Ethanesulfonyl-phenyl)-N-{4-[1-(1-ethyl-5-fluoro-1H-benzoimidazol-2-yl)-1-methyl-ethoxy]-phenyl}-acetamide] | < 50 | 83 | 85.2 |
| CCS(=O)(=O)c1ccc(CC(=O)Nc2ccc(C#CC(C)(C)Oc3ccc(Cl)cc3F)nc2)cc1 [Example 80, N-{6-[3-(4-Chloro-2-fluoro-phenoxy)-3-methyl-but-1-yn-1-yl]-pyridin-3-yl}-2-(4-ethanesulfonyl-phenyl)-acetamide] |  | 50.2 | 62.4 |
| CCS(=O)(=O)c1ccc(CC(=O)Nc2ccc(C#CC(C)(C)Oc3ccc(F)cc3F)cc2)cc1 [Example 69, N-{4-[3-(2,4-Difluoro-phenoxy)-3-methyl-but-1-yn-1-yl]-phenyl}-2-(4-ethanesulfonyl-phenyl)-acetamide] | 50 to 100 | 71.6 | 81.8 |
| CCS(=O)(=O)c1ccc(CC(=O)Nc2ccc(OC(C)(C)c3ccc(F)cc3Cl)c(F)c2)cc1 [Example 97, N-{4-[1-(2-Chloro-4-fluoro-phenyl)-1-methyl-ethoxy]-3-fluoro-phenyl}-2-(4-ethanesulfonyl-phenyl)-acetamide] | < 50 | 80.8 | 82.1 |
| CCS(=O)(=O)c1ccc(CC(=O)Nc2ccc(C#CC(C)(C)Oc3ccc(F)c(F)c3F)cc2)cc1 [Example 72, 2-(4-Ethanesulfonyl-phenyl)-N-{4-[3-methyl-3-(2,3,4-trifluoro-phenoxy)-but-1-yn-1-yl]-phenyl}-acetamide] | < 50 | 76.2 | 79.7 |
| CCn1c(C(C)(C)Oc2ccc(F)c(F)c2F)nc2cc(NC(=O)Cc3ccc(S(=O)(=O)CC)cc3)ccc21 [Example 91, 2-(4-Ethanesulfonyl-phenyl)-N-{1-ethyl-2-[1-methyl-1-(2,3,4-trifluoro-phenoxy)-ethyl]-1H-benzoimidazol-5-yl}-acetamide] | < 50 | 90 | 90.6 |
| CCN(C(=O)C(C)(C)Oc1ccc(NC(=O)Cc2ccc(S(=O)(=O)CC)cc2)cc1)c1ccc(Cl)cc1 [Example 127, N-(4-Chlorophenyl)-2-{4-[2-(4-ethanesulfonylphenyl)acetylamino]-phenoxy}-N-ethyl-2-methylpropionamide] |  | 68 | 75.8 |
| CCS(=O)(=O)c1ccc(CC(=O)Nc2ccc(OC(C)(C)c3ccc(F)cc3F)cc2)cc1 [Example 2, N-(4-{[2-(2,4-Difluorophenyl)propan-2-yl]oxy}phenyl)-2-[4-(ethylsulfonyl)phenyl]acetamide] |  | 66.9 | 78 |
| CCCn1c(C(C)(C)Oc2ccc(F)cc2F)nc2cc(NC(=O)Cc3ccc(S(=O)(=O)CC)cc3)ccc21 [Example 115, N-{2-[1-(2,4-Difluoro-phenoxy)-1-methyl-ethyl]-1-propyl-1H-benzoimidazol-5-yl}-2-(4-ethanesulfonyl-phenyl)-acetamide] | < 50 | 82.4 | 88.3 |
| CCS(=O)(=O)c1ccc(CC(=O)Nc2ccc(OC3(c4ccc(Cl)c(F)c4)CCCCC3)c(F)c2)cc1 [Example 122, N-{4-[1-(4-Chloro-3-fluorophenyl)-cyclohexyloxy]-3-fluorophenyl}-2-(4-ethanesulfonyl-phenyl)-acetamide] | < 50 | 77.3 | 81.2 |
| CCS(=O)(=O)c1ccc(CC(=O)Nc2ccc(OC3(c4ccc(F)cc4F)COC3)c(F)c2)cc1 [Example 142, N-(4-((3-(2,4-Difluorophenyl)oxetan-3-yl)oxy)-3-fluorophenyl)-2-(4-(ethylsulfonyl)phenyl)acetamide] | < 50 | 81.1 | 81.5 |
| CCS(=O)(=O)c1ccc(CC(=O)Nc2ccc(OC(C)(C)c3ccc(F)cc3Cl)cc2)cc1 [Example 8, N-(4-{[2-(2-Chloro-4-fluorophenyl)propan-2-yl]oxy}phenyl)-2-[4-(ethylsulfonyl)phenyl]acetamide] | < 50 | 85 | 87.8 |
| CCn1c(C(C)(C)Oc2ccc(F)c(F)c2)nc2cc(NC(=O)Cc3ccc(S(=O)(=O)CC)cc3)ccc21 [Example 89, N-{2-[1-(3,4-Difluoro-phenoxy)-1-methyl-ethyl]-1-ethyl-1H-benzoimidazol-5-yl}-2-(4-ethanesulfonyl-phenyl)-acetamide] | < 50 | 86.5 | 95.5 |
